Laboratory results taken from ChEMBL document CHEMBL1201862, “PubChem BioAssay data set” (2004).
Counter-ions that a name gives are not always drawn. Active and inactive are the calls of the source.

What was measured:
[1] = Luminescence-based cell-based high throughput dose response assay to identify activators of the DAF-12 from the parasite S. stercoralis (ssDAF-12).; type: functional
[2] = target: T1, Oxysterols receptor LXR-beta (Homo sapiens, UniProt P55055); assay: LXR agonists, Gal4 luciferase reporter, dose response, counter-screen for ssDAF-12 agonist project, cell-based, luminescence, HEK293, S. stercoralis campaign (AID 720737); type: functional; details: read-out: IC50 (the source's name)
T1 sequence (P55055 whole entry): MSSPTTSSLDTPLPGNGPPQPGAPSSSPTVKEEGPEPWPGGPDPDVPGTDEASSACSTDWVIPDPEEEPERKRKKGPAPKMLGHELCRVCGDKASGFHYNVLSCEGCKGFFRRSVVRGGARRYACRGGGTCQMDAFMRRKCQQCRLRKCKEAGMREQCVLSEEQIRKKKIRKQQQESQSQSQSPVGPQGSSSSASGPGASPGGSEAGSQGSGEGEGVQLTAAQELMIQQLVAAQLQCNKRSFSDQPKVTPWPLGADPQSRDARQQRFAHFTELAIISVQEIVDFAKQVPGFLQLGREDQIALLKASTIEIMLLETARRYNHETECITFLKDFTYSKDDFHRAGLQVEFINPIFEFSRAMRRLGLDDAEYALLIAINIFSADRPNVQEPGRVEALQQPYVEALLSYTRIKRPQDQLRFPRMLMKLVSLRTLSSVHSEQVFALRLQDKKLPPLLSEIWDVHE

Protein Tat = target: T2, Protein Tat (Human immunodeficiency virus type 1 group M subtype B (isolate HXB2)(HIV-1), UniProt P04608); type: functional;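 also: tat binding to TAR RNA read out by fluorescence polarization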
T2 sequence (P04608 whole entry): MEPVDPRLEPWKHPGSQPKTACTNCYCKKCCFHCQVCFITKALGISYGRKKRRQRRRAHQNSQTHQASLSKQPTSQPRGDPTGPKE

[3] = THP-1 cell cytotoxicity, dose response, cytotoxicity control for Vif-APOBEC3G degradation inhibitor project, THP-1 cells (AID 1117359); type: functional; details: Human immunodeficiency virus 1, THP-1
Paired box protein Pax-8 = Paired box protein Pax-8 (Homo sapiens, UniProt Q06710); assay: inhibitors of PAX8-driven TPO luciferase reporter, dose response, RMG-I cells, cherry-pick (AID 687027); type: functional, cell-based;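 also: luciferase reporter driven by Pax8 target thyroperoxidase promoter measured by SteadyGlo luminescence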
Chain of Paired box protein Pax-8 (Q06710 whole entry): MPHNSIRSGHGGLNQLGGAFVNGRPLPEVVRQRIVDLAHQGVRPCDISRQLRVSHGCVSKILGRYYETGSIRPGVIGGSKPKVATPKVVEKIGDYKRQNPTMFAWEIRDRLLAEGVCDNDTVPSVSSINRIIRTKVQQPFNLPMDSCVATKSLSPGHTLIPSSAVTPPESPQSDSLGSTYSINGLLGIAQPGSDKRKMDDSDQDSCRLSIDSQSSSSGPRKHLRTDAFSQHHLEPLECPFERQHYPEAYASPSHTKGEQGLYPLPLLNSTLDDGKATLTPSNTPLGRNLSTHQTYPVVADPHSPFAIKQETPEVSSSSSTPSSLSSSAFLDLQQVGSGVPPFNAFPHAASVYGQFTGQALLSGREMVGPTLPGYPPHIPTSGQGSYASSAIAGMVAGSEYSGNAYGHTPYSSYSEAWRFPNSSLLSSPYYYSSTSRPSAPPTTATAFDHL

[4] = NIH:OVCAR-3 ovarian cancer cell cytotoxicity, dose response, PAX8 inhibitor project, plate reader, dry powder samples (AID 743044); type: functional, cell-based
[5] = cytotoxicity in OVCAR8 ovarian cancer cells, dose response, PAX8 project, cell-based, plate reader, dry powder samples (AID 743197); type: functional; details: OVCAR-8
[6] = target: T1, Oxysterols receptor LXR-beta; type: functional, cell-based
[7] = HeLa 2N DNA content increase, dose response, cell-based, IC50 (AID 1117349); type: functional
[8] = HeLa 4N DNA content increase, dose response, cell-based, IC50 (AID 1117351); type: functional
Protein skinhead-1 = target: T3, Protein skinhead-1 (Caenorhabditis elegans, UniProt P34707); type: functional
T3 sequence (P34707 whole entry): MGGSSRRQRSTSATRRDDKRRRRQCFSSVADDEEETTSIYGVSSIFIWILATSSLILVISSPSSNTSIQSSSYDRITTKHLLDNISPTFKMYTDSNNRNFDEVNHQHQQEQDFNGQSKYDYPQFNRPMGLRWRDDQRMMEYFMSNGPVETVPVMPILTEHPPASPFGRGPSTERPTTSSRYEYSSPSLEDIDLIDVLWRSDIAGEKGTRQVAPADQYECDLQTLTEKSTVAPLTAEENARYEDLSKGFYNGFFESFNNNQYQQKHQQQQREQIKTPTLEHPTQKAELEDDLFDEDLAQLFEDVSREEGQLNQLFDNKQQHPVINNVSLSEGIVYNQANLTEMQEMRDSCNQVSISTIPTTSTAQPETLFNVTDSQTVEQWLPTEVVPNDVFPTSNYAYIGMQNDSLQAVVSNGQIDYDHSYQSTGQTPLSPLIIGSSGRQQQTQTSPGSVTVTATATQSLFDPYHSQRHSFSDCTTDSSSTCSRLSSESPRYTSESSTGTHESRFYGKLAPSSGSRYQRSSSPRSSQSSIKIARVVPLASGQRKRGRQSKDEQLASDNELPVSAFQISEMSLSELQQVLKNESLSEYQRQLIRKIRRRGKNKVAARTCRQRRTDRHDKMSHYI

Vero = Vero cell cytotoxicity, cytotoxicity control for flavivirus capping enzyme inhibitors (AID 588742); type: functional; details: Chlorocebus sabaeus
Cytochrome P450 2D6 = Cytochrome P450 2D6 (Homo sapiens, UniProt P10635);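 also: CYP2D6 member of a cytochrome P450 panel assay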
Chain of Cytochrome P450 2D6 (P10635 whole entry): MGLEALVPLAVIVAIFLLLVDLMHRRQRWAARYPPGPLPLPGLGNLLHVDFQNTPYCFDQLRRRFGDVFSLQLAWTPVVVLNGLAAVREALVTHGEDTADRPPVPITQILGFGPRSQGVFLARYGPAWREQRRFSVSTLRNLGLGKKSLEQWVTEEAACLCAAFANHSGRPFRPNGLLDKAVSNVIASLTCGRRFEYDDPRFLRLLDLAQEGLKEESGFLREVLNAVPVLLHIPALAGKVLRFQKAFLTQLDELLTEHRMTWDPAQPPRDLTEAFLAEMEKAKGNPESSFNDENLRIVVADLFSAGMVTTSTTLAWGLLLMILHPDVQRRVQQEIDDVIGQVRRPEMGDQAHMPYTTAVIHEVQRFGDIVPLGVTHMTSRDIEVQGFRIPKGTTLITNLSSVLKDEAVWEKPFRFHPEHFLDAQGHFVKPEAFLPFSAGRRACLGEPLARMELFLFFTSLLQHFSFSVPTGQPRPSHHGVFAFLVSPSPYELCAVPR

Cytochrome P450 2C9 = Cytochrome P450 2C9 (Homo sapiens, UniProt P11712)
Chain of Cytochrome P450 2C9 (P11712 whole entry): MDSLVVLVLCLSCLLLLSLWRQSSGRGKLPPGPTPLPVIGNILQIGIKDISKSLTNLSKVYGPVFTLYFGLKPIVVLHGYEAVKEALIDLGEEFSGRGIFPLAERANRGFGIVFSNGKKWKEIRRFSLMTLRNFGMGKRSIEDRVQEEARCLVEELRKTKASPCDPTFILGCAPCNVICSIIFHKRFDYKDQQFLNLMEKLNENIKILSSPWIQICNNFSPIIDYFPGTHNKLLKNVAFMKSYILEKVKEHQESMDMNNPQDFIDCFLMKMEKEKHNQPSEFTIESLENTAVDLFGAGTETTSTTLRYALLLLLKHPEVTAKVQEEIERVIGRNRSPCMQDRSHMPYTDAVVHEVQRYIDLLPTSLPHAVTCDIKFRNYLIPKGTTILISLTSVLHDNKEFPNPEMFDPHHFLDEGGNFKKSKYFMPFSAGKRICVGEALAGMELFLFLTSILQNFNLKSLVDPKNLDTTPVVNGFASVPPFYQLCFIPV

Large T antigen = Large T antigen (Simian virus 40, UniProt P03070); type: functional, Betapolyomavirus macacae;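 also: Confirmatory-stage PubChem screen for compounds that inhibit SV40 T antigen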
Chain of Large T antigen (P03070 whole entry): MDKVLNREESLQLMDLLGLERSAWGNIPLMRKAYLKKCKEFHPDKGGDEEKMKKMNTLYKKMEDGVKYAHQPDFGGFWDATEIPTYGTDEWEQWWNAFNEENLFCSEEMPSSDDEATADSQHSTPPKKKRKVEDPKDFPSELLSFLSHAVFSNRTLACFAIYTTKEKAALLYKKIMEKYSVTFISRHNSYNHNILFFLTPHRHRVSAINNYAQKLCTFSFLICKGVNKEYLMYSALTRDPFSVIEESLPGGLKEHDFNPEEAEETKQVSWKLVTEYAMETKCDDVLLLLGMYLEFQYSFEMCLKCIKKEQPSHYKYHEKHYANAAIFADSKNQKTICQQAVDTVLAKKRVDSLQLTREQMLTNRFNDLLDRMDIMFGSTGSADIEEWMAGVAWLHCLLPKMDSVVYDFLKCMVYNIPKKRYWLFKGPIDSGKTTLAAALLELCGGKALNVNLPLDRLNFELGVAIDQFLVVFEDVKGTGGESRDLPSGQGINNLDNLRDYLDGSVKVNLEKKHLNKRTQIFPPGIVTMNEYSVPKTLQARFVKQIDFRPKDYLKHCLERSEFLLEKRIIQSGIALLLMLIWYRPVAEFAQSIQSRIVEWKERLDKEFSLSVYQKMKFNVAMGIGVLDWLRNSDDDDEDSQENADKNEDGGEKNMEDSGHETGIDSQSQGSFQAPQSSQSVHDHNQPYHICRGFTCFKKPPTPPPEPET

[9] = target: Glucose-6-phosphate 1-dehydrogenase (Homo sapiens, UniProt P11413); assay: human G6PD enzyme inhibitors, dose response, selectivity assay for P. falciparum G6PD inhibitor project, biochemical, fluorescence (AID 504792); type: functional
Chain of Glucose-6-phosphate 1-dehydrogenase (P11413 whole entry): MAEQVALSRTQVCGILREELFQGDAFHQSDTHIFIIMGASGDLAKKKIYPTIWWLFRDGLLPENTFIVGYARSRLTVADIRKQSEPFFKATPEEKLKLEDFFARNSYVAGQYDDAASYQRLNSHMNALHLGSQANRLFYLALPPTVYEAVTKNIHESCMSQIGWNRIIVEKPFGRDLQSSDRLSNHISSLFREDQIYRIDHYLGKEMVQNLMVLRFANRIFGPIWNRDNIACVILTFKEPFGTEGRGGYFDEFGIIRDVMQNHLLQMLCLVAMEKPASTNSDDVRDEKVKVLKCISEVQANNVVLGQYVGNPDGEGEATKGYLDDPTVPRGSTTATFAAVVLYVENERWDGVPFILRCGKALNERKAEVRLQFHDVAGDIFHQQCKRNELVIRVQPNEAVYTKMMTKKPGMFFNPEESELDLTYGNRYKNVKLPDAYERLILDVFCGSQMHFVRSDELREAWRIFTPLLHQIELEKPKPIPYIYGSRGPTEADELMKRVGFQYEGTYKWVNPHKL

Genome polyprotein = Genome polyprotein (dengue virus type 2, UniProt P29990); assay: Dengue-2 NS5 methyltransferase inhibitors, primary screen, biochemical, confirmation dose response (AID 588689); type: functional
Chain of Genome polyprotein (P29990 2492-3391 limits assumed): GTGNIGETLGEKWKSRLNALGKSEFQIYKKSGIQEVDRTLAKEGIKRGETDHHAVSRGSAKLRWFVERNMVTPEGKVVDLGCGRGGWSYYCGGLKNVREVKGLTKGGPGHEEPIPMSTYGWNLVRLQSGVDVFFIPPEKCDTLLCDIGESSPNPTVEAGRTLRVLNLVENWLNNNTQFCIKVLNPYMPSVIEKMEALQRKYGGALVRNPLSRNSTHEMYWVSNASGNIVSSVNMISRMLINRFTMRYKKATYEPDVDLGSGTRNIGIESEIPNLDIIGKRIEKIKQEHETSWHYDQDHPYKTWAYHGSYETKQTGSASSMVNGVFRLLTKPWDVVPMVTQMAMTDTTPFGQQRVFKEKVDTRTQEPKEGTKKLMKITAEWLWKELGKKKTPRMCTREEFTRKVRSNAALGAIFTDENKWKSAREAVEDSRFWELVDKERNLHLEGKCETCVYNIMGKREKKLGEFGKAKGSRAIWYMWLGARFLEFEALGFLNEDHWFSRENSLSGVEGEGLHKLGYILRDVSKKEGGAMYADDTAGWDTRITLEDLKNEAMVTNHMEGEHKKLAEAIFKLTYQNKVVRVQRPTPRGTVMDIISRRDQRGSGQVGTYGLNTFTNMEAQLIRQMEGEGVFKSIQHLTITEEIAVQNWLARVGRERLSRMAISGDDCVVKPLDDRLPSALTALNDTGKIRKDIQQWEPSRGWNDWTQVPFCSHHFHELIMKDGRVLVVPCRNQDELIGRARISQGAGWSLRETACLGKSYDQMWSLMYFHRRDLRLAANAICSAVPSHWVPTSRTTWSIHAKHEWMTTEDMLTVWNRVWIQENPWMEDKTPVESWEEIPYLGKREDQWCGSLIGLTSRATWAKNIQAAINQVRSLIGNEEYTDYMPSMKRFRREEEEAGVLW

Caspase-6 = target: T4, Caspase-6 (Homo sapiens, UniProt P55212); assay: human caspase-6 inhibitors, dose response, biochemical, VEID-R110 fluorescence, cherry-pick (AID 720632)
T4 sequence (P55212 whole entry): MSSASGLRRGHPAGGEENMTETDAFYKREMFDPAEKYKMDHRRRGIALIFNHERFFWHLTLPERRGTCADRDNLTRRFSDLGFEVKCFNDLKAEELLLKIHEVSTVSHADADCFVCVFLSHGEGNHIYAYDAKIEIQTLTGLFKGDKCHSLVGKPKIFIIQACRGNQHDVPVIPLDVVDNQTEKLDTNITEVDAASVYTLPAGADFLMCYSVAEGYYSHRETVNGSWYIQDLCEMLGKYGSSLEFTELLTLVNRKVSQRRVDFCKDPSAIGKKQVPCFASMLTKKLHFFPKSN

[10] = target: T5, Histone-lysine N-methyltransferase NSD2 (Homo sapiens, UniProt O96028); type: biochemical
T5 sequence (O96028 whole entry): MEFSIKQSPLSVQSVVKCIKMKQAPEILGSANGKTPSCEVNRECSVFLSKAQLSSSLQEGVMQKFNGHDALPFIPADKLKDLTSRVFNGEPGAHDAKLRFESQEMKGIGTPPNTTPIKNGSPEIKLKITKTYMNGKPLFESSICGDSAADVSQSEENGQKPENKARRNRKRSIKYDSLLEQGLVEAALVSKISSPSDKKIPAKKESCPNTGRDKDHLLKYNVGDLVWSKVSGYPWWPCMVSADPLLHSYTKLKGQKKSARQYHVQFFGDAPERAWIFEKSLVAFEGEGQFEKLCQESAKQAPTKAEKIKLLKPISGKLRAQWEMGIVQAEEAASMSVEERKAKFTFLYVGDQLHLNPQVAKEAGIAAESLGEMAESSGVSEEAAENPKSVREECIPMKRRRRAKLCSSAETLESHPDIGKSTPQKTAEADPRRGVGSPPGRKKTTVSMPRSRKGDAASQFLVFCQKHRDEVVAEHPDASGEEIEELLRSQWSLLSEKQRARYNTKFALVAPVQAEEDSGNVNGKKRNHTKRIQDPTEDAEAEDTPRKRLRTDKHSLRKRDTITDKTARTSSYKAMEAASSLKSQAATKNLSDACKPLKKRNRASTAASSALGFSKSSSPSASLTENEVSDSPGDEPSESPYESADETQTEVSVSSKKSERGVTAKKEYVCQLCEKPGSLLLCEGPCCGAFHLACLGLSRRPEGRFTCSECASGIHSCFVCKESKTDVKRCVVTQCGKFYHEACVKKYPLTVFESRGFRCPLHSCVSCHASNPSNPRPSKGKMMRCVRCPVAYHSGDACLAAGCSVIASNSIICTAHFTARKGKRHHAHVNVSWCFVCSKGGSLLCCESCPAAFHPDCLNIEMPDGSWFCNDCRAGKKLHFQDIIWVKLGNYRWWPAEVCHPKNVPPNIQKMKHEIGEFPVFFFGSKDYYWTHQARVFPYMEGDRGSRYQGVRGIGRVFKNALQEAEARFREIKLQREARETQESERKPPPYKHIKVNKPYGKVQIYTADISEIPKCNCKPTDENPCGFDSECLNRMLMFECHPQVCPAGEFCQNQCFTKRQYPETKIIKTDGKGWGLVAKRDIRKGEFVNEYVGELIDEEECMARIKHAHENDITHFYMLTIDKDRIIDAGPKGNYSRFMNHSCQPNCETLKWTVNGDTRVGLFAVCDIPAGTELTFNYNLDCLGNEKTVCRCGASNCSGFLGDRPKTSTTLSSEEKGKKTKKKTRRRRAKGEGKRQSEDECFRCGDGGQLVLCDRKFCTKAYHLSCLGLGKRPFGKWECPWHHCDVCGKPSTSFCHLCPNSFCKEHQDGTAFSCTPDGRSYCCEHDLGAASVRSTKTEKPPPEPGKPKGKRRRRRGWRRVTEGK

[11] = NIH-3T3 fibroblast cytotoxicity, dose response, cytotoxicity control, cell-based, fluorescence, Alamar Blue, secondary assay (AID 2327); type: functional;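 also: NIH-3T3 mouse fibroblasts cultured with fluconazole at 8 µg/mL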
[12] = system: Streptococcus sp. 'group A'; assay: growth inhibition of control SK(-) GAS strain, dose response, counter-screen for streptokinase expression inhibitor project, luminescence, kanamycin, BacTiterGlo, confirmation (AID 1900); type: functional, organism-based
[13] = target: T6, Heat shock factor protein 1 (Mus musculus, UniProt P38532); assay: inhibition of MG132-induced HSE-luciferase signal, confirmation, cell-based, NIH3T3, luminescence, dose retest (AID 2382); type: functional;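 also: NIH3T3 fibroblasts with HSF1-driven luciferase reporter stressed by proteasome inhibitor MG132; luminescence from HSF1-driven luciferase expression after 8 hours of MG132 stress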
T6 sequence (P38532 whole entry): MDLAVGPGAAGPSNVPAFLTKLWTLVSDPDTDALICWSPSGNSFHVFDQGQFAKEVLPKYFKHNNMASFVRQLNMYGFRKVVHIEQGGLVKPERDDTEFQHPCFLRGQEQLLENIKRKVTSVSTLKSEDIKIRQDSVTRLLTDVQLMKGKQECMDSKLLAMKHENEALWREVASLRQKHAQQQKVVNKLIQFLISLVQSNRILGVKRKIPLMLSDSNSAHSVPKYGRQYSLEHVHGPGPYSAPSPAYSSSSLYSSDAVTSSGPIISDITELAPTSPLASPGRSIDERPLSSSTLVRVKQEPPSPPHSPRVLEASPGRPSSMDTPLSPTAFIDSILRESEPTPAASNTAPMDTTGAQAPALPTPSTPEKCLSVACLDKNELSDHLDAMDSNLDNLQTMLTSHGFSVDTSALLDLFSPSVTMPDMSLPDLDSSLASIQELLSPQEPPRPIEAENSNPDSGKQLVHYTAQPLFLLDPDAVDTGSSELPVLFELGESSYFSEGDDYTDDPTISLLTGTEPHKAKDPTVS

Streptokinase A = target: T7, Streptokinase A (Streptococcus pyogenes serotype M1, UniProt P10520); assay: S. pyogenes streptokinase expression inhibitors, potency, dose response, plasminogen activation absorbance, OD405 (AID 1914); type: functional, Streptococcus pyogenes M1 GAS;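 also: secreted streptokinase activity via plasminogen activation per viability signal from cell pellet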
T7 sequence (P10520 whole entry): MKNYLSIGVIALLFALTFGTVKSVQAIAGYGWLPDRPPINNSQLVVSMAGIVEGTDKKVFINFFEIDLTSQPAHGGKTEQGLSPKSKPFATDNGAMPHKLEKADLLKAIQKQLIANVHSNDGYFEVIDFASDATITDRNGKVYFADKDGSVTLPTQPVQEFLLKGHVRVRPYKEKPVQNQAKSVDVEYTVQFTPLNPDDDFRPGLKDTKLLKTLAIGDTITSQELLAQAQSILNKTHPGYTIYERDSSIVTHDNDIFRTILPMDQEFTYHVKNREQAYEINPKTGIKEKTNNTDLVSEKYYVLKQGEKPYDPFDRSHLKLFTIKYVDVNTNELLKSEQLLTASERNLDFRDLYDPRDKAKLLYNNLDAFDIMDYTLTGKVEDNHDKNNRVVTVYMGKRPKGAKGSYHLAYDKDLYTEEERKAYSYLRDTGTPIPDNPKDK

[14] = C. albicans growth with fluconazole, confirmation, fluorescence, retest (AID 2467); type: functional, cell-based
Streptococcus = assay: Group A Streptococcus viability loss, dose response, counter-screen for streptokinase expression inhibitor project, luminescence, BacTiterGlo (AID 1915); type: functional, organism-based;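 also: potency for reduction of bacterial viability or growth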

O=C(O)c1cccc(N2C(=O)c3ccc(C(=O)c4cccc([N+](=O)[O-])c4)cc3C2=O)c1
IC50 [1]: > 67.5 µM (inactive)
EC50 [2]: > 67.5 µM (inactive)

CC(C)(C)OC(=O)N(Cc1ccccc1)Cc1cccc(OCc2cccc(NC(=O)c3ccccc3)c2)c1
IC50 (Protein Tat): > 100 µM (active)
CC50 [3]: > 40 µM (active)

COc1ccccc1NC(=O)N1CCCCN2[C@H](C1)[C@@H](c1ccc(-c3cccc(C#N)c3)cc1)[C@@H]2CO
AC50 (Paired box protein Pax-8): 11.6 µM (active)
AC50 [4]: 23.2 µM (active)
AC50 [5]: > 70 µM (inactive)

Fc1ccc(-c2nc3n(n2)Cc2ccccc2-3)cc1
IC50 [1]: > 67.6 µM (inactive)
EC50 [2]: > 67.6 µM (inactive)
EC50 [6]: > 67.6 µM (inactive)
EC50 (cells): > 67.6 µM (inactive)

CN(C)N=Nc1[nH]cnc1C(N)=O
AC50 (Paired box protein Pax-8): 5.34 µM (active)
IC50 [7]: > 10 µM (inactive)
IC50 [8]: > 10 µM (inactive)

O=C(/C=C/c1cccs1)N1CCc2ccccc21
IC50 (Protein skinhead-1): > 100 µM (inactive)
IC50 [1]: > 67.5 µM (inactive)
EC50 [2]: > 67.5 µM (inactive)
EC50 [6]: > 67.5 µM (inactive)
EC50 (cells): > 67.5 µM (inactive)

CN=c1ccc(Br)cc(C(=O)/C=C/c2ccc3c(c2)OCO3)c1O
CC50 (Vero): > 40 µM (active)
IC50 (Protein Tat): 40.7 µM (inconclusive)
CC50 [3]: > 40 µM (active)
AC50 (Cytochrome P450 2D6): 10 µM (inconclusive)
AC50 (Cytochrome P450 2C9): inconclusive

O=C1NC(=O)N(c2ccccc2)C(=O)/C1=C/c1ccc([N+](=O)[O-])s1
IC50 (Large T antigen): 59.3 µM (active)
IC50 [9]: 76.7 µM (inactive)
IC50 (Genome polyprotein): 20.4 µM (active)
AC50 (Caspase-6): 33.3 µM (active)
AC50 [10]: > 20 µM (inactive)

CC(=O)[C@]1(O)Cc2c(O)c3c(c(O)c2[C@@H](O[C@H]2C[C@H](N)[C@H](O)[C@H](C)O2)C1)C(=O)c1ccccc1C3=O [IDARUBICIN HYDROCHLORIDE]
EC50 [11]: 0.178 µM (inconclusive)
EC50 [12]: 1.07 µM (active)
EC50 [13]: 3.01 µM (inconclusive)
EC50 (Streptokinase A): > 150 µM (not active)
EC50 [14]: > 38 µM (not active)
EC50 (Streptococcus): 2.6 µM (active)
IC50 [7]: 0.0111 µM (active)
IC50 [8]: > 10 µM (inactive)
